This experiment addresses T1, IL-17A/A (Homo sapiens, UniProt Q16552).
T1 construct: purchased Genscript Z03228
T1 sequence (Q16552 24-155): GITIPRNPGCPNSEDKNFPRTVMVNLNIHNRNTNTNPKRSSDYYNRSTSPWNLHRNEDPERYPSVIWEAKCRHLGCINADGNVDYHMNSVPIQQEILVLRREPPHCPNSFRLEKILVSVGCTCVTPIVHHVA
The experiment is described as follows: IL-17A/A HEK-Blue Cell Assay. It is filed as cell-based. As to conditions: HEK-Blue IL-17A reporter cell line, SEAP readout at A630, 20 hours incubation with IL-17A/A, top concentration 10 uM, 1 uM or 0.3 uM; for IC50: read-out: IL-17A/A inhibition (pIC50) (converted).

The structures appear in SMILES notation. Bounds are passed on as bounds.

Take `CCC(=O)N[C@@H](C(=O)N1CCN(C)CC1)[C@@H](C)c1ccc(NC(=O)C(NC(=O)c2ccnn2CC)C(CC)c2ccc(Cl)cc2)c(F)c1` (single isomer, unassigned) [Compound 562]: the IC50 is 10 to 100 nM.

In the case of `CCC(=O)N[C@@H](C(=O)N1CCN(C)CC1)[C@@H](C)c1ccc(NC(=O)C(NC(=O)c2nonc2CC)C(CC)c2ccc(Cl)cc2)c(F)c1` (some centres unmarked) [Compound 566], the IC50 was 10 to 100 nM. On the same count and under the same terms, with `CCC(=O)N[C@@H](C(=O)N1CC2(C1)CC(F)(F)C2)[C@@H](C)c1ccc(NC(=O)[C@@H](NC(=O)c2ccnn2CC)[C@H]2CC[C@H](C)CC2)c(F)c1` [Compound 373] the figure was 10 to 100 nM.

Turning to `CCC(=O)N[C@H](Cc1ccc(NC(=O)[C@@H](NC(=O)c2cnn3c2CCC3)C2CCCCC2)c(F)c1)C(=O)N1CCN(C)CC1` [Compound 703], the “IL-17A/A inhibition (pIC50)” value was “X2a (compounds were evaluated up to 1 uM and did not inhibit activity by >80%, however they showed some activity at 1 uM (less than 80% and more than 20%))”. Still for that read-out and setting: with `CCC(=O)N[C@@H](C(=O)N1CCN(C)CC1)[C@@H](C)c1ccc(NC(=O)[C@@H](NC(=O)c2ccnn2-c2ccccc2)C2CCCCC2)c(F)c1` [Compound 738] the entry was “X2a (compounds were evaluated up to 1 uM and did not inhibit activity by >80%, however they showed some activity at 1 uM (less than 80% and more than 20%))”; with `CCn1nccc1C(=O)N[C@H](C(=O)Nc1ccc(C[C@@H](Nc2ncc(C#N)c(OC)n2)C(=O)N2CCN(C)CC2)cc1F)C1CCCCC1` [Compound 701], “X2a (compounds were evaluated up to 1 uM and did not inhibit activity by >80%, however they showed some activity at 1 uM (less than 80% and more than 20%))”.

`CCC(=O)NC(C(=O)N1CCN(C)CC1)C(C)c1ccc(NC(=O)C(NC(=O)C(F)(F)c2cnc(OC)nc2)C2CCC(C)CC2)c(F)c1` (centres unmarked) [Compound 405]: the IC50 was 10 to 100 nM.

In the case of `COc1nonc1C(=O)N[C@H](C(=O)Nc1ccc([C@H](C)[C@@H](NC(=O)c2cnns2)C(=O)N2CCN(C)CC2)cc1F)[C@H]1CC[C@H](C)CC1` [Compound 552], the IC50 is 10 to 100 nM. The same measure, in the same setting: with `CCC(=O)N[C@H](Cc1ccc(NC(=O)[C@@H](NC(=O)c2ccnn2C(C)C)C2CCC(F)(F)CC2)c(F)c1)C(=O)N1CCN(C)CC1` [Compound 672] the figure was 100 to 10000 nM. Take `CCC(=O)N[C@@H](C(=O)N1CCN(CC)C(C)(C)C1)[C@@H](C)c1ccc(NC(=O)[C@@H](NC(=O)c2nonc2CC)[C@H]2CC[C@H](C)CC2)c(F)c1` [Compound 466]: the “IL-17A/A inhibition (pIC50)” value is on record as “A (compounds having a pIC50 of greater than or equal 8 as A)”. On to `CCC(=O)N[C@H](Cc1ccc(NC(=O)[C@@H](NC(=O)C(F)(F)c2cccnc2)C2CCCCC2)c(F)c1)C(=O)N1CCN(C)CC1` [Compound 205], for which the IC50 is 100 to 10000 nM. On the same count and under the same terms, with `CCC(=O)N[C@@H](C(=O)N1CCN(C)CC1)[C@@H](C)c1ccc(NC(=O)[C@@H](NC(=O)c2cccn2CC)C2CCCCCC2)c(F)c1` [Compound 275] the figure was below 10 nM. As to `CCC(=O)N[C@H](C(=O)NC1CCOCC1)[C@@H](C)c1ccc(NC(=O)[C@@H](NC(=O)c2ccnn2CC)C2CCCCC2)c(F)c1` [Compound 757], the “IL-17A/A inhibition (pIC50)” value was “X2b (compounds were evaluated up to 1 uM and inhibited activity at 1 uM by less than 20%)”.

As to `COc1ccc(C(F)(F)C(=O)N[C@H](C(=O)Nc2ccc([C@H](C)[C@@H](NC(=O)c3cnns3)C(=O)N3CCN(C)CC3)cc2F)C2CCCCCC2)cn1` [Compound 331], the IC50 was below 10 nM. Consider `CCC(=O)N[C@@H](C(=O)N1CCN(C)CC1)[C@@H](C)c1ccc(NC(=O)[C@@H](NC(=O)c2ccnn2CC)C2CCCCC2)cc1` [Compound 639], for which the IC50 was 100 to 10000 nM. The same measure, in the same setting: with `CCC(=O)N[C@H](Cc1ccc(NC(=O)[C@@H](NC(=O)c2ccnn2CC(F)(F)F)C2CCCCC2)c(F)c1)C(=O)N1CCN(C)CC1` [Compound 648] the figure was 100 to 10000 nM; with `CCc1nonc1C(=O)N[C@H](C(=O)Nc1ccc([C@H](C)[C@@H](NC(=O)N(C)C2CC2)C(=O)N2CCN(C)CC2)cc1F)[C@H]1CC[C@H](C)CC1` [Compound 513], below 10 nM.

As to `CCC(=O)N[C@@H](C(=O)N1CCN(C)CC1)[C@@H](C)c1ccc(NC(=O)C(NC(=O)c2nonc2CC)C(CC)c2ccc(F)cc2)c(F)c1` (single isomer, unassigned) [Compound 559], the “IL-17A/A inhibition (pIC50)” value was “X2b (compounds were evaluated up to 1 uM and inhibited activity at 1 uM by less than 20%)”. Regarding `CCC(=O)N[C@@H](C(=O)N1CCC(C)(O)CC1)[C@@H](C)c1ccc(NC(=O)[C@@H](NC(=O)c2ccnn2C(C)C)[C@H]2CC[C@H](C)CC2)c(F)c1` [Compound 377], the IC50 was 10 to 100 nM. Consider `CCC(=O)N[C@H](Cc1ccc(NC(=O)[C@@H](NC(=O)C(F)(F)c2ccc(OC)nc2)C2CCC(F)(F)CC2)c(F)c1)C(=O)N1CCN(C)CC1` [Compound 215], for which the IC50 was 100 to 10000 nM.

`CCC(=O)N[C@@H](C(=O)N1CCN(C)CC1)[C@@H](C)c1ccc(NC(=O)[C@@H](NC(=O)c2ccnn2CC)C2CCC(C)(C)CC2)c(F)c1` [Compound 296]: the IC50 is 10 to 100 nM. For the molecule `CCC(=O)N[C@H](Cc1ccc(NC(=O)[C@@H](NC(=O)c2ccnn2CC)C2CCCCC2)c(F)c1)C(=O)N1CCNC2(CC2)C1` [Compound 690], the IC50 was 100 to 10000 nM. Turning to `CCC(=O)N[C@H](Cc1ccc(NC(=O)[C@@H](NC(=O)c2ccc(S(=O)(=O)NC)s2)C2CCCCC2)c(F)c1)C(=O)N1CCN(C)CC1` [Compound 718], the “IL-17A/A inhibition (pIC50)” value was “X2a (compounds were evaluated up to 1 uM and did not inhibit activity by >80%, however they showed some activity at 1 uM (less than 80% and more than 20%))”.

For `CCC(=O)N[C@@H](C(=O)N1CCN(C)CC1)[C@@H](C)c1ccc(NC(=O)[C@@H](NC(=O)C(F)(F)c2ccc3[nH]ncc3c2)C2CCCCC2)c(F)c1` [Compound 245], the IC50 was 10 to 100 nM. Same read-out and setting: with `CCn1nccc1C(=O)N[C@H](C(=O)Nc1ccc([C@H](C)[C@@H](NC(=O)COC)C(=O)N2CCN(C)CC2)cc1F)[C@H]1CC[C@H](C)CC1` [Compound 478] the figure was 10 to 100 nM; with `CCC(=O)NC(Cc1ccc(NC(=O)[C@@H](NC(=O)c2ccnn2CC)C2CCCCC2)c(F)c1)C(=O)N1CCN(Cc2cccnc2)CC1` (some centres unmarked) [Compound 652], 100 to 10000 nM.

Take `CCc1nonc1C(=O)N[C@H](C(=O)Nc1ccc([C@H](C)[C@@H](NC(=O)N(CC)C2CC2)C(=O)N2CCN(C)CC2)cc1F)[C@H]1CC[C@H](C)CC1` [Compound 574]: the IC50 was below 10 nM.

As to `CCC(=O)N[C@H](Cc1ccc(NC(=O)[C@@H](NC(=O)C(F)(F)c2cccc(NS(C)(=O)=O)c2)C2CCCCC2)c(F)c1)C(=O)N1CCN(C)CC1` [Compound 642], the IC50 was 100 to 10000 nM. The same measure, in the same setting: with `CCn1nccc1C(=O)N[C@H](C(=O)Nc1ccc([C@H](C)[C@@H](NC(=O)c2cnns2)C(=O)N2CCOCC2)cc1F)[C@H]1CC[C@H](C)CC1` [Compound 381] the figure was 10 to 100 nM; with `CC(C)NC(=O)N[C@@H](C(=O)N1CCN(C)CC1)[C@@H](C)c1ccc(NC(=O)[C@@H](NC(=O)c2ccnn2C(C)C)C2CCCCCC2)c(F)c1` [Compound 328], 10 to 100 nM. In the case of `CCC(=O)N[C@H](Cc1ccc(NC(=O)[C@@H](NC(=O)c2coc3c2C(=O)NCC3)C2CCCCC2)c(F)c1)C(=O)N1CCN(C)CC1` [Compound 708], the “IL-17A/A inhibition (pIC50)” value is “X2b (compounds were evaluated up to 1 uM and inhibited activity at 1 uM by less than 20%)”. Take `CCC(=O)N[C@@H](C(=O)N1CCN(C)CC1)[C@@H](C)c1ccc(NC(=O)C(NC(=O)c2ccnn2CC)C(CC)c2ccc(F)cc2)c(F)c1` (single isomer, unassigned) [Compound 553]: the “IL-17A/A inhibition (pIC50)” value is “X2a (compounds were evaluated up to 1 uM and did not inhibit activity by >80%, however they showed some activity at 1 uM (less than 80% and more than 20%))”.

For the molecule `CCn1nccc1C(=O)N[C@H](C(=O)Nc1ccc([C@H](C)[C@@H](NS(=O)(=O)CC)C(=O)N2CCN(C)CC2)cc1F)C1CCCCC1` [Compound 313], the IC50 was 10 to 100 nM. Regarding `CCC(=O)N[C@@H](C(=O)N1CCN(Cc2ccccn2)CC1)[C@@H](C)c1ccc(NC(=O)[C@@H](NC(=O)c2nonc2CC)[C@H]2CC[C@H](C)CC2)c(F)c1` [Compound 450], the IC50 is below 10 nM.

As for `CCC(=O)N[C@@H](C(=O)N1CCN(C)CC1)[C@@H](C)c1ccc(NC(=O)C(NC(=O)C(F)(F)c2ccc(OC)nc2)[C@@H](C)C2CCCCC2)c(F)c1` (some centres unmarked) [Compound 394], the IC50 was below 10 nM. For `CCn1nccc1C(=O)N[C@H](C(=O)Nc1ccc([C@H](C)[C@@H](NC(=O)c2cnsc2)C(=O)N2CCN(C)CC2)cc1F)C1CCCCC1` [Compound 305], the IC50 is 10 to 100 nM.

On to `CCC(=O)N[C@@H](C(=O)N1CCN(C)CC1)[C@@H](C)c1ccc(NC(=O)[C@@H](NC(=O)C(F)(F)c2cnn(CC)c2)C2CCCCCC2)c(F)c1` [Compound 267], for which the IC50 is below 10 nM.

Regarding `CCC(=O)N[C@@H](C(=O)N1CCN(C)CC1)[C@@H](C)c1ccc(NC(=O)[C@@H](NC(=O)C(F)(F)c2ccc(OC)nc2)C2CCCCCC2)cc1` [Compound 222], the IC50 was 10 to 100 nM. Same read-out and setting: with `CCC(=O)N[C@@H](C(=O)N1CC(C(C)(C)O)C1)[C@@H](C)c1ccc(NC(=O)[C@@H](NC(=O)c2nonc2CC)[C@H]2CC[C@H](C)CC2)c(F)c1` [Compound 446] the figure was below 10 nM; with `C[C@@H](c1ccc(NC(=O)[C@@H](NC(=O)c2coc3ccncc23)[C@H]2CC[C@H](C)CC2)c(F)c1)[C@@H](NC(=O)c1cnns1)C(=O)N1CCN(C)CC1` [Compound 526], 10 to 100 nM.

For the molecule `CCC(=O)N[C@@H](C(=O)N1CCC(C)(O)CC1)[C@@H](C)c1ccc(NC(=O)[C@@H](NC(=O)C(F)(F)c2cnn(CC)c2)[C@H]2CC[C@H](C)CC2)c(F)c1` [Compound 533], the IC50 was below 10 nM.

(Values after US12421212B2, “Substituted benzenecarboxamides as IL-17A modulators” (DiCE Alpha, Inc., priority 2019, dated 2025).)
